Where “and” joins values, the source holds several entries; their conditions need not be identical. Equal entries are not always repeated. After the bases stand the sugars from the 5' end (letter, count) and the backbone: PS all phosphorothioate, else s phosphorothioate and o phosphodiester by linkage. Methylation of C is not given here. k = constrained ethyl (cEt); d = 2'-deoxy (DNA)

The data set addresses MALAT1. The note with it: ASO, A431, 0.005 µM.
As to AATCACCTACAACTTT (sugars k3 d10 k3, PS), the target mRNA inhibition was determined as 26%.

As to CAGTAGGGCTTCTCAA (sugars k3 d10 k3, PS), the target mRNA inhibition turned out to be 10%. As for TACCGTTTTTCAGCTT (sugars k3 d10 k3, PS), the figure is -31%. On to CATAACTGATCTGACT (sugars k3 d10 k3, PS), for which the target mRNA inhibition was -5%. As for ATCCTGAATGGCTTCA (sugars k3 d10 k3, PS), the figure is 0%; as for CGCCAGCCCCCCACGG (sugars k3 d10 k3, PS), -45%. As for CGTGTGGAAAGATTTG (sugars k3 d10 k3, PS), the figure is 0%; as for GCAAAATGGCGGACTT (sugars k3 d10 k3, PS), -4%; as for CTGAACCGGAGCAGGA (sugars k3 d10 k3, PS), -13%. As for AGCAGAAGCCCCTGCG (sugars k3 d10 k3, PS), the figure is -1%. Take TCCGTTACGAAAGTCC (sugars k3 d10 k3, PS): the target mRNA inhibition was 64% and 59% and 50%.

As to TGCCTTTACTTATCAA (sugars k3 d10 k3, PS), the target mRNA inhibition came out at 26%.

GCATCTAGGCCATCAT (sugars k3 d10 k3, PS): the target mRNA inhibition was 57%. Take TCCGCTAAGATGCTAG (sugars k3 d10 k3, PS): the target mRNA inhibition was 15%. GCCGCCTCTTAAAGCA (sugars k3 d10 k3, PS): the target mRNA inhibition is -11%. Regarding GGACATTGCCTCTTCA (sugars k3 d10 k3, PS), the target mRNA inhibition came out at 54%. Regarding TTCAGACAAGATTCAT (sugars k3 d10 k3, PS), the target mRNA inhibition is 51% and 37%.

On to GGATTTTTACCAACCA (sugars k3 d10 k3, PS), for which the target mRNA inhibition was determined as 14%. As for CCCTCCCCTTTAATAA (sugars k3 d10 k3, PS), the figure is -17%; as for CTCCAATACTTGTCTT (sugars k3 d10 k3, PS), 54% and 44%.

In the case of TTCTAGACAGACCTAA (sugars k3 d10 k3, PS), the target mRNA inhibition came out at 29%.

Take CAGGAGTGCCAACCAC (sugars k3 d10 k3, PS): the target mRNA inhibition was -2%.

With TGTTATGTTCACCTGA (sugars k3 d10 k3, PS), the target mRNA inhibition came to 35%.

As to AGGTATGACATATAAT (sugars k3 d10 k3, PS), the target mRNA inhibition was 35%.

Consider ACCACAACAATTTAGA (sugars k3 d10 k3, PS), for which the target mRNA inhibition was -10%. As for CCCGCCTGAGCCCCGG (sugars k3 d10 k3, PS), the figure is -2%; as for TTACAGTTCTTGAACA (sugars k3 d10 k3, PS), 25%; as for TTCAGGATCATTAAGC (sugars k3 d10 k3, PS), 18%. With GCTACTGGCTGCATCG (sugars k3 d10 k3, PS), the target mRNA inhibition is 43%. As for CACTTGATCCCAACTC (sugars k3 d10 k3, PS), the figure is 44%; as for GTTAAGACCATCCCAA (sugars k3 d10 k3, PS), 19%. Turning to AAATCGCACTGGCTCC (sugars k3 d10 k3, PS), the target mRNA inhibition was 6%. As for CCAAACAACTTTTGCA (sugars k3 d10 k3, PS), the figure is 44%. As for GCTGAGTGTTCCTGCA (sugars k3 d10 k3, PS), the figure is 22%; as for CTTTAAATGACGCAAT (sugars k3 d10 k3, PS), 35%.

On to ACTTACTGGTTTAAGT (sugars k3 d10 k3, PS), for which the target mRNA inhibition was -3%. As for CCCCCCGCCTCAGTTA (sugars k3 d10 k3, PS), the target mRNA inhibition was -7%.

CCAGCCTATAAGGACA (sugars k3 d10 k3, PS): the target mRNA inhibition is -1%.

Take CTAAGATAGCAGCACA (sugars k3 d10 k3, PS): the target mRNA inhibition is 11%. As for TTCCACAGACCTCAAC (sugars k3 d10 k3, PS), the figure is -4%; as for CCAAGCTACTGGCTGC (sugars k3 d10 k3, PS), 23%. As for CAATCCCAACCGTAAC (sugars k3 d10 k3, PS), the figure is 9%; as for AAGCGAGTTCAAGTGG (sugars k3 d10 k3, PS), 15%; as for CAGAGTTTGAGTGGTT (sugars k3 d10 k3, PS), 16%. For the sequence TGAAGAATACCATCTG (sugars k3 d10 k3, PS), the target mRNA inhibition is 30%. GGTCAGGAGAAAGTGC (sugars k3 d10 k3, PS): the target mRNA inhibition came out at 18%. Turning to TTCTTAACAGCTTATG (sugars k3 d10 k3, PS), the target mRNA inhibition worked out at 21%. Take GACTCTGGGAAACCTG (sugars k3 d10 k3, PS): the target mRNA inhibition worked out at 1%.

As to TTTAAAGTAGACCAAC (sugars k3 d10 k3, PS), the target mRNA inhibition is -49%. Take TTAATGCTAGTCCTCA (sugars k3 d10 k3, PS): the target mRNA inhibition is 39%. As for AATAAGCACTTATCCC (sugars k3 d10 k3, PS), the figure is 31%; as for CCTTCCCTATATAAGG (sugars k3 d10 k3, PS), -41%. TTATCTGCGGTTTCCT (sugars k3 d10 k3, PS): the target mRNA inhibition was 45%. As for CTTCGGATGCTTCACT (sugars k3 d10 k3, PS), the figure is 33%. Turning to TCGCCATGGAAAGCGA (sugars k3 d10 k3, PS), the target mRNA inhibition was 15%. As for AGCTTGACAAGCAATT (sugars k3 d10 k3, PS), the figure is 16%; as for AGACGGAGAACAACTC (sugars k3 d10 k3, PS), -14%; as for ATGCAATACTGCAGAT (sugars k3 d10 k3, PS), 1%. Take AATCCCCTAGGGAAGG (sugars k3 d10 k3, PS): the target mRNA inhibition turned out to be 5%. Consider AGCACATCATGCTATT (sugars k3 d10 k3, PS), for which the target mRNA inhibition turned out to be 26%. For CTTTACAGAAGTCTCG (sugars k3 d10 k3, PS), the target mRNA inhibition turned out to be 22%. As for CTTGAAACCGATTATG (sugars k3 d10 k3, PS), the figure is 38%. As for CAAATCGCCATGGAAA (sugars k3 d10 k3, PS), the figure is 14%; as for AATCACAAATACGACT (sugars k3 d10 k3, PS), 23%. As for CCCCCATTATATTAGA (sugars k3 d10 k3, PS), the target mRNA inhibition came out at 28%.

As to AACGAAGAGATACCTG (sugars k3 d10 k3, PS), the target mRNA inhibition was 12%.

Regarding CAAGGCAAATCGCCAT (sugars k3 d10 k3, PS), the target mRNA inhibition is 42%.

For TCCAATGGACATCTCT (sugars k3 d10 k3, PS), the target mRNA inhibition was determined as 25%. As for ATTGGTATTAATTCGG (sugars k3 d10 k3, PS), the figure is 70% and 75% and 92%; as for GTGTGGTTGCCAAGCC (sugars k3 d10 k3, PS), 43% and 37% and 50%; as for CTAAGATTGTAAGCAT (sugars k3 d10 k3, PS), 28%. As for TAACGAAGAGATACCT (sugars k3 d10 k3, PS), the figure is 22%; as for AAGGTTACCATAAGTA (sugars k3 d10 k3, PS), 46%. In the case of CCCCAATCAAGATTTT (sugars k3 d10 k3, PS), the target mRNA inhibition is -21%.

For the sequence CTGGAAGCTCCTTCTA (sugars k3 d10 k3, PS), the target mRNA inhibition came to 25%. As for CCAGGCTGGTTATGAC (sugars k3 d10 k3, PS), the figure is 44%; as for GTATGAGCTTCAGACC (sugars k3 d10 k3, PS), -6%.

Take CCACCAAAGACCTCGA (sugars k3 d10 k3, PS): the target mRNA inhibition came out at 27%. As for ACTCTAAGATTGTAAG (sugars k3 d10 k3, PS), the target mRNA inhibition was found to be 25%. As for TCCGCCGCCTCTTAAA (sugars k3 d10 k3, PS), the figure is 26%; as for TCACCAAGGAGCTGTT (sugars k3 d10 k3, PS), 12%; as for CGGAAATCGGCCTACG (sugars k3 d10 k3, PS), 30%. As for CTTTAAGCCTTCGGTG (sugars k3 d10 k3, PS), the figure is -3%; as for TCAGGCGAGCTGAGGC (sugars k3 d10 k3, PS), 7%. Turning to ATGCATTCTAATAGCA (sugars k3 d10 k3, PS), the target mRNA inhibition is -1%. For the sequence CAGCACGGGCTGTCTG (sugars k3 d10 k3, PS), the target mRNA inhibition was -33%. As for ATTTTTGAAGCATACC (sugars k3 d10 k3, PS), the figure is 41% and 57%; as for ACCAATCCCAACCGTA (sugars k3 d10 k3, PS), 18%. As for CACGGATTTTTACCAA (sugars k3 d10 k3, PS), the figure is 19%; as for TTCAAGCACCGCTTGA (sugars k3 d10 k3, PS), 12% and 25%; as for CACTTTAGAGGCTTTT (sugars k3 d10 k3, PS), 42%. As for TTTGAAGCATACCTTA (sugars k3 d10 k3, PS), the figure is -1%; as for CACGGCCCGCACGGAA (sugars k3 d10 k3, PS), -1%; as for ACCTTCTAACTTCTGC (sugars k3 d10 k3, PS), 64% and 42%. Consider AAAGTGGTTGCCCGCT (sugars k3 d10 k3, PS), for which the target mRNA inhibition was 15%. Take TGCACTAAAGATCACT (sugars k3 d10 k3, PS): the target mRNA inhibition turned out to be 37%. As to GCCCCCCAGTTGCCGC (sugars k3 d10 k3, PS), the target mRNA inhibition was -35%. As for GCATTCCCACCCAAAA (sugars k3 d10 k3, PS), the figure is 34%. Regarding CCAGGAGTGCCAACCA (sugars k3 d10 k3, PS), the target mRNA inhibition was 5%.
